Laboratory results as given in BindingDB's records for doi:10.1021/jm701383e (Merck Serono, 2008).
pEC50, pIC50, pKi: −log10 of the molar value.

target: T1, Prostaglandin D2 receptor 2 (Homo sapiens, UniProt Q9Y5Y4); test: Radioligand Binding Assay and [35S] GTP-gamma-S Binding Assay; settings: not given
T1 sequence (Q9Y5Y4 whole entry): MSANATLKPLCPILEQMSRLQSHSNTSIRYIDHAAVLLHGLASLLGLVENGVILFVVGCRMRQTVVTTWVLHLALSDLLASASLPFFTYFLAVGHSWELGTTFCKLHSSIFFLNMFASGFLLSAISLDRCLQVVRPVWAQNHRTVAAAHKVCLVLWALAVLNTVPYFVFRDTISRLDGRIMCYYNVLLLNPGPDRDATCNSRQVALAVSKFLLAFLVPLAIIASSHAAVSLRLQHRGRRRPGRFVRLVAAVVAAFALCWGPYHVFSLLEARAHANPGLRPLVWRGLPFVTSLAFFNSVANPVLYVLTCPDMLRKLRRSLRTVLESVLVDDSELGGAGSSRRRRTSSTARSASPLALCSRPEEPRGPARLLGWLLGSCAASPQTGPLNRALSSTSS
Procedure: (§1) A scintillation proximity assay was used for radioligand competition and saturation binding assays. Nonspecific binding was determined in the presence of 1 uM PGD2. Binding activity was determined by using a 1450 Microbeta scintillation counter (Wallac, UK). Ki values were calculated by using the Cheng-Prusoff equation, and represent the average of at least three independent dose-response experiments. EC50/IC50 values were obtained from GTP-gamma-S binding assay, which measures antagonist activity of compounds in the presence of 80 nM PGD2.

Compared with `O=C(O)CN1C(=O)[C@]2(CC(=O)N(Cc3cc(Cl)ccc3F)C2)c2cc(Cl)ccc21` [2-[(3R)-5-chloro-1'-[(5-chloro-2-fluorophenyl)methyl]-1,2-dihydrospiro[indole-3,3'-pyrrolidine]-2,5'-dione]acetic acid], `O=C(O)CN1C(=O)[C@@]2(CC(=O)N(Cc3cc(Cl)ccc3F)C2)c2cc(Cl)ccc21` [2-[(3S)-5-chloro-1'-[(5-chloro-2-fluorophenyl)methyl]-1,2-dihydrospiro[indole-3,3'-pyrrolidine]-2,5'-dione]acetic acid] is 1.72 log units higher in pKi: 6.17 for the first, 7.89 for the second.

same assay, conditions: pH 7.4; 22 °C

`O=C(O)CN1C(=O)C2(CC(=O)N(Cc3ccc(F)cc3)C2=O)c2cc(Cl)ccc21` (configuration not stated) [2-{5-chloro-1'-[(4-fluorophenyl)methyl]-1,2-dihydrospiro[indole-3,3'-pyrrolidine]-2,2',5'-trione}acetic acid] and `O=C(O)CN1C(=O)C2(CC(=O)N(Cc3cccc(Cl)c3)C2=O)c2cc(Cl)ccc21` (configuration not stated) [2-{5-chloro-1'-[(3-chlorophenyl)methyl]-1,2-dihydrospiro[indole-3,3'-pyrrolidine]-2,2',5'-trione}acetic acid] are within 0.2 log units of each other in pIC50: 6.74 for the first, 6.91 for the second.

Going from `O=C(O)CN1C(=O)C2(CC(=O)N(Cc3ccccc3)C2=O)c2cc(Cl)ccc21` (configuration not stated) [2-{1'-benzyl-5-chloro-1,2-dihydrospiro[indole-3,3'-pyrrolidine]-2,2',5'-trione}acetic acid] to `O=C(O)CN1C(=O)C2(CC(=O)N(Cc3ccccc3F)C2=O)c2cc(Cl)ccc21` (configuration not stated) [2-{5-chloro-1'-[(2-fluorophenyl)methyl]-1,2-dihydrospiro[indole-3,3'-pyrrolidine]-2,2',5'-trione}acetic acid], the pIC50 rises from 6.38 to 6.67 (0.29 log units). The second is the more potent here.

target: T2, Prostaglandin D2 receptor 2 (Mus musculus, UniProt Q9Z2J6); test: as above; settings: not given
T2 sequence (Q9Z2J6 whole entry): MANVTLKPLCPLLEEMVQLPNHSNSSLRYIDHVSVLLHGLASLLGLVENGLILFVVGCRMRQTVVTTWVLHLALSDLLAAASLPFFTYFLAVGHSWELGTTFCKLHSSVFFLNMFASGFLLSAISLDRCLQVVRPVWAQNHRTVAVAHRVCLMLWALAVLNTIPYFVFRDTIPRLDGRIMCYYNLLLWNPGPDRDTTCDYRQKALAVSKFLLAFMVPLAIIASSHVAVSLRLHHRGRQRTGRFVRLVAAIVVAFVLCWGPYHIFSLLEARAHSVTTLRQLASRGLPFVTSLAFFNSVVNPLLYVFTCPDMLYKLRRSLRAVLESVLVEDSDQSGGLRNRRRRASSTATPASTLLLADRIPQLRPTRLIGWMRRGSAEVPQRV
Procedure: as §1

In the case of `O=C(O)CN1C(=O)[C@@]2(CC(=O)N(Cc3cc(Cl)ccc3F)C2)c2cc(Cl)ccc21` [2-[(3S)-5-chloro-1'-[(5-chloro-2-fluorophenyl)methyl]-1,2-dihydrospiro[indole-3,3'-pyrrolidine]-2,5'-dione]acetic acid], the pKi was 7.06.

target: T1, Prostaglandin D2 receptor 2; test: Radioligand Binding Assay; settings: not given

Going from `Cc1noc(C)c1CN1C(=O)CC2(C1=O)C(=O)N(CC(=O)O)c1ccc(Cl)cc12` (configuration not stated) [2-{5-chloro-1'-[(3,5-dimethyl-1,2-oxazol-4-yl)methyl]-1,2-dihydrospiro[indole-3,3'-pyrrolidine]-2,2',5'-trione}acetic acid] to `Cc1noc(-c2ccccc2)c1CN1C(=O)CC2(C1=O)C(=O)N(CC(=O)O)c1ccc(Cl)cc12` (configuration not stated) [2-{5-chloro-1'-[(3-methyl-5-phenyl-1,2-oxazol-4-yl)methyl]-1,2-dihydrospiro[indole-3,3'-pyrrolidine]-2,2',5'-trione}acetic acid], the pEC50 rises from 6.66 to 7.64 (0.98 log units). The second is the more potent here.

Compared with `Cc1nc(CN2C(=O)CC3(C2=O)C(=O)N(CC(=O)O)c2ccc(Cl)cc23)cs1` (configuration not stated) [2-{5-chloro-1'-[(2-methyl-1,3-thiazol-4-yl)methyl]-1,2-dihydrospiro[indole-3,3'-pyrrolidine]-2,2',5'-trione}acetic acid], `O=C(O)CN1C(=O)C2(CC(=O)N(Cc3csc(-c4cccc(Cl)c4)n3)C2=O)c2cc(Cl)ccc21` (configuration not stated) [2-(5-chloro-1'-{[2-(3-chlorophenyl)-1,3-thiazol-4-yl]methyl}-1,2-dihydrospiro[indole-3,3'-pyrrolidine]-2,2',5'-trione)acetic acid] is 0.69 log units higher in pEC50: 6.63 for the first, 7.32 for the second. The second is the more potent here.

`O=C(O)CN1C(=O)[C@@]2(CC(=O)N(Cc3cc(Cl)ccc3F)C2=O)c2cc(Cl)ccc21` [2-[(3R)-5-chloro-1'-[(5-chloro-2-fluorophenyl)methyl]-1,2-dihydrospiro[indole-3,3'-pyrrolidine]-2,2',5'-trione]acetic acid] and `O=C(O)CN1C(=O)C2(CC(=O)N(Cc3cc(Cl)ccc3F)C2=O)c2cc(Cl)ccc21` (configuration not stated) [2-{5-chloro-1'-[(5-chloro-2-fluorophenyl)methyl]-1,2-dihydrospiro[indole-3,3'-pyrrolidine]-2,2',5'-trione}acetic acid] are within 0.2 log units of each other in pEC50: 7.18 for the first, 7.32 for the second.

`O=C(O)CN1C(=O)C2(CC(=O)N(Cc3cc(Cl)cc(Cl)c3)C2=O)c2cc(Cl)ccc21` (configuration not stated) [2-{5-chloro-1'-[(3,5-dichlorophenyl)methyl]-1,2-dihydrospiro[indole-3,3'-pyrrolidine]-2,2',5'-trione}acetic acid] and `O=C(O)CN1C(=O)[C@@]2(CC(=O)N(Cc3cccc(Cl)c3)C2=O)c2cc(Cl)ccc21` [2-[(3R)-5-chloro-1'-[(3-chlorophenyl)methyl]-1,2-dihydrospiro[indole-3,3'-pyrrolidine]-2,2',5'-trione]acetic acid] are within 0.2 log units of each other in pEC50: 7.09 for the first, 6.97 for the second.

`Cc1noc(-c2ccccc2)c1CN1CC2(CC1=O)C(=O)N(CC(=O)O)c1ccc(Cl)cc12` (configuration not stated) [2-{5-chloro-1'-[(3-methyl-5-phenyl-1,2-oxazol-4-yl)methyl]-1,2-dihydrospiro[indole-3,3'-pyrrolidine]-2,5'-dione}acetic acid] and `Cc1onc(-c2ccccc2)c1CN1C(=O)CC2(C1=O)C(=O)N(CC(=O)O)c1ccc(Cl)cc12` (configuration not stated) [2-{5-chloro-1'-[(5-methyl-3-phenyl-1,2-oxazol-4-yl)methyl]-1,2-dihydrospiro[indole-3,3'-pyrrolidine]-2,2',5'-trione}acetic acid] are within 0.2 log units of each other in pEC50: 7.72 for the first, 7.68 for the second.
